Five substances from patent publication US20240199693A1, “HE[…] FOR USE IN THE TREATMENT OF HMGB1-DEPENDENT DISEASES” (priority 2021, published 2024) can be followed below.

Assay type in all cases: in vivo
In test [1] the test system is HMGB1. Description: Mouse model of acute lung injury induced by intratracheal LPS; HMGB1 in bronchoalveolar fluid by ELISA. The following applies: C57Bl/6 male mice, BALF after 48 hours, mean±SEM (n=6). As for the experimental part: This example illustrates efficacy of compounds of the invention in the inhibition of HMGB1 secretion.
Compounds of the invention were tested in a mouse model of acute lung injury induced by intratracheal administration of lipopolysaccharide (LPS) as described, for instance, in D'Alessio F R. Mouse Models of Acute Lung Injury and ARDS. Methods Mol Biol. 2018, 1809:341-350. C57BI/6 male mice were randomized into eight groups of 6 animals each. Mice were treated intratracheally with 1 μg/mouse of α-Galactosyl Ceramide (α-GalCer, KRN7000, Sigma-Aldrich) and after 24 hours with LPS (E. coli; 1 mg/mouse) and 10 μL/mouse Freund's complete adjuvant. Then, mice received by inhalation 50 μL saline (control); 10, 100, or 250 μg/kg of H-Tyr-D-Ala-Gly-Phe-Leu-Arg-Arg-NH2; 100 μg/kg of H-Tyr-D-Ala-Gly-Phe-Leu-Arg-Arg-NHC2H5; 100 μg/kg of H-Tyr-D-Ala-Gly-Phe-Leu-Arg-Arg-NHC4H9; 100 μg/kg of H-Tyr-D-Ala-Gly-Phe-Leu-Arg-Arg-N(CH3)2; 10 μg/kg H-Tyr-D-Ala-Gly-Phe-Leu-Arg-Arg-OH (Chavkin C et al. 1981); or 250 μg/kg of [D-Ala^2, D-Leu^5]-enkephalin as solutions in 50 μL. saline. After 48 hours, HMGB1 concentrations were measured in bronchoalveolar fluid (BALF) with commercially available ELISA kit for HMGB1 (SEA3999Mu, Cloud-Clone corp.). Results are presented in Tables 1 as mean±SEM (n=6) of HMGB1 levels in BALF, in % of control.

Test [2] relates to HMGB1. Description: Mouse model of rheumatoid arthritis (type II collagen-induced); serum HMGB1 by ELISA and arthritis incidence. The following applies: BALB/c male mice. How it is done:
(§1) This example illustrates that compound (I) is useful for treating arthritis, the HMGB1-dependent disease.
An efficacy of the compound of the invention was tested in a mouse model of rheumatoid arthritis, as described in Brand et al., Nat Protoc. 2007, 2(5):1269-75. Male BALB/c mice were randomized into two groups of 5 animals each. Arthritis was induced in using an intradermal injection of cold emulsion (0.05 ml) prepared by emulsifying chicken type II collagen (CII) solution in acetic acid with complete Freund's adjuvant (CFA) into the base of the tail. Three weeks later, the mice were administered by a second injection in the same manner. Following the booster immunization, mice received 50 μL saline i.p. (control) or 100 μg/kg H-Tyr-D-Ala-Gly-Phe-Leu-Arg-Arg-NH2 in 50 μL saline i.p., once-a-day, for two weeks. The serum level of HMGB1 was determined on day 35 with commercially available ELISA kit for HMGB1 (SEA3999Mu, Cloud-Clone corp.). The clinical severity of arthritis in each paw was quantified according to a graded scale from 0 to 4, as described in Brand et al., Nat Protoc. 2007, 2(5):1269-75. Results are presented in Table 2 as and mean±SEM (n=5) of HMGB1 levels in serum in % of control and arthritis incidence.
On the technique in general: An ELISA detects its analyte on a solid surface through an enzyme-linked reagent.

In test [3] the test system is HMGB1. Description: Mouse model of antigen-induced arthritis (mBSA); knee swelling and HMGB1 in synovial lavage fluid by ELISA. The note with it: C3H/He male mice, 0.14 mg/kg s.c. once-a-day for 5 days, 25th day, mean±SEM (n=6). How it is done: as §1
An efficacy of H-Tyr-D-Ala-Gly-Phe-Leu-Arg-Arg-NH2 acetate was tested in a mouse model of antigen-induced arthritis induced by methylated bovine serum albumin (mBSA), as described in Brackertz et al., Arthritis Rheum. 1977, 20(3):841-50; Staite et al., Agents and Actions 1989, 27(3/4):338-40. Briefly, male C3H/He mice 8-10 weeks of age were randomized into two groups of 6 animals each. Immunization: the mice were immunized 2 times (on the 0th and 7th days) with s.c. injections of mBSA (50 mg/kg, Sigma-Aldrich) emulsified in 20 μL Freund's complete adjuvant and on the 21st day received intra-articular injection of mBSA (50 mg/kg) in 20 μL saline in the right hind knee as a booster immunization. […] Treatment: the mice received s.c. injections either 0.1 ml saline (control, n=6) or 0.14 mg/kg H-Tyr-D-Ala-Gly-Phe-Leu-Arg-Arg-NH2 acetate in 0.1 ml saline (n=6), once-a-day for 5 consecutive days, beginning 30 min after the booster immunization. The disease course was quantified by assessment of the swelling of the arthritic knee joint on 25th day. HMGB1 levels (pg/ml) in the synovial lavage fluids of the arthritic joint on 25th day was measured using ELISA (SEA3999Mu, Cloud-Clone corp.). […]

Square brackets hold non-standard residues; d marks the D form. Ends that are not written are not given here.

Take “H-Tyr-D-Ala-Gly-Phe-Leu-Arg-Arg-N(CH3)2 acetate (H-Y[dA]GFLRR-NMe2; also: acetate salt) [heptapeptide dimethylamide of formula (I)]”: the “HMGB1 in BALF, % of control” value in the test on HMGB1 [1] (100 μg/kg by inhalation) is recorded as 42.3 ± 5.9 %.

In the case of “H-Tyr-D-Ala-Gly-Phe-Leu-Arg-Arg-NHC2H5 acetate (H-Y[dA]GFLRR-NHEt; also: acetate salt) [heptapeptide ethylamide of formula (I)]”, in the test on HMGB1 [1] (100 μg/kg by inhalation), the “HMGB1 in BALF, % of control” value was 35.2 ± 7.2 %.

Consider “H-Tyr-D-Ala-Gly-Phe-Leu-Arg-Arg-NHC4H9 acetate (H-Y[dA]GFLRR-NHC4H9; also: acetate salt) [heptapeptide butylamide of formula (I)]”, for which the “HMGB1 in BALF, % of control” value in the test on HMGB1 [1] (100 μg/kg by inhalation) was 40.1 ± 5.0 %.

Turning to “H-Tyr-D-Ala-Gly-Phe-Leu-Arg-Arg-OH (H-Y[dA]GFLRR-OH; also: acetate salt) [modified [D-Ala^2]-dynorphin (1-7) described by Chavkin C et al. 1981; structurally similar comparison peptide, reference compound]”, the “HMGB1 in BALF, % of control” value in the test on HMGB1 [1] (10 μg/kg by inhalation) was determined as 88.67 ± 10.5%.

In the test with HMGB1 [2] (100 μg/kg i.p. once-a-day for two weeks (n=5)), “L-tyrosyl-D-alanyl-L-glycyl-L-phenylala nyl-L-leucyl-L-arginyl-L-arginine amide acetate (Y[dA]GFLRR-NH2; also: acetate salt) [heptapeptide amide of formula (I), Z = NH2]” came in with an Arthritis incidence of 20%. Besides, the “HMGB1 in serum, % of control” value in the test on HMGB1 [2] (100 μg/kg i.p. once-a-day for two weeks, day 35, mean±SEM (n=5)) amounted to 21.5 ± 5.9 %. Besides, the “HMGB1 in BALF, % of control” value is 31.8 ± 12.4 % with HMGB1 [1] (100 μg/kg by inhalation) and 34.2 ± 8.0 % in the test with HMGB1 [1] (250 μg/kg by inhalation). The “HMGB1 in synovial lavage fluid of the arthritic joint” value in the test with HMGB1 [3] was determined as 119 ± 38 pg/mL. The Knee joint circumference with HMGB1 [3] worked out at 1.32 ± 0.04 cm.
